The CheMixHub ionic liquid set
± gives the uncertainty stated by the source.

Assay: xn = mol fraction of the nth substance listed
Conditions: 101 kPa

CC[NH2+]CC.O=S(=O)([O-])O + O
viscosity (298.15 K, x2 = 0.6088): 32.1 ± 2.2 mPa·s

CS(=O)(=O)[O-].C[N+](C)(CCO)CCO + O
viscosity (298.15 K, x1 = 0.1991): 14.87 ± 0.97 mPa·s | viscosity (303.15 K, x1 = 0.2989): 29.9 ± 1.9 mPa·s | viscosity (303.15 K, x1 = 0.6984): 333 ± 28 mPa·s | viscosity (313.15 K, x1 = 0.4797): 62.4 ± 3.9 mPa·s | viscosity (313.15 K, x1 = 0.6984): 186 ± 14 mPa·s | viscosity (318.15 K, x1 = 0.2989): 17.3 ± 1.1 mPa·s | viscosity (318.15 K, x1 = 0.4797): 50.1 ± 3.1 mPa·s | viscosity (318.15 K, x1 = 1): 378 ± 33 mPa·s | viscosity (323.15 K, x1 = 0.1991): 6.85 ± 0.44 mPa·s | viscosity (323.15 K, x1 = 0.4797): 40.9 ± 2.6 mPa·s | viscosity (323.15 K, x1 = 0.6984): 112.1 ± 7.4 mPa·s | viscosity (323.15 K, x1 = 1): 282 ± 23 mPa·s

OC1OC[C@@H](O)[C@H](O)[C@H]1O (some centres undefined) + O + CCCCCCCCCC[n+]1ccn(C)c1.[Br-]
viscosity (298.15 K, x1 = 0.0001909, x3 = 0.001813): 0.998 ± 0.015 mPa·s | viscosity (298.15 K, x1 = 0.0001999, x3 = 0.003572): 1.112 ± 0.015 mPa·s | viscosity (298.15 K, x1 = 0.0002133, x3 = 0.005429): 1.247 ± 0.016 mPa·s | viscosity (298.15 K, x1 = 0.0002286, x3 = 0.007128): 1.391 ± 0.017 mPa·s | viscosity (298.15 K, x1 = 0.0003836, x3 = 0.001812): 1.001 ± 0.015 mPa·s | viscosity (298.15 K, x1 = 0.0003893, x3 = 0.005428): 1.254 ± 0.016 mPa·s | viscosity (298.15 K, x1 = 0.0003978, x3 = 0.003572): 1.116 ± 0.015 mPa·s | viscosity (298.15 K, x1 = 0.000437, x3 = 0.007127): 1.398 ± 0.017 mPa·s | viscosity (298.15 K, x1 = 0.0005688, x3 = 0.001812): 1.005 ± 0.015 mPa·s | viscosity (298.15 K, x1 = 0.0005861, x3 = 0.003571): 1.123 ± 0.015 mPa·s | viscosity (298.15 K, x1 = 0.0005867, x3 = 0.005427): 1.262 ± 0.016 mPa·s | viscosity (298.15 K, x1 = 0.0006133, x3 = 0.007125): 1.404 ± 0.017 mPa·s | viscosity (298.15 K, x1 = 0.0007539, x3 = 0.001812): 1.012 ± 0.015 mPa·s | viscosity (298.15 K, x1 = 0.0007591, x3 = 0.00357): 1.129 ± 0.015 mPa·s | viscosity (298.15 K, x1 = 0.0007841, x3 = 0.005426): 1.269 ± 0.016 mPa·s | viscosity (298.15 K, x1 = 0.0008175, x3 = 0.007124): 1.409 ± 0.017 mPa·s | viscosity (298.15 K, x1 = 0.0009408, x3 = 0.001811): 1.018 ± 0.015 mPa·s | viscosity (298.15 K, x1 = 0.0009549, x3 = 0.00357): 1.133 ± 0.015 mPa·s | viscosity (298.15 K, x1 = 0.0009897, x3 = 0.007123): 1.418 ± 0.017 mPa·s | viscosity (298.15 K, x1 = 0.000999, x3 = 0.005425): 1.276 ± 0.016 mPa·s | viscosity (298.15 K, x1 = 0.001114, x3 = 0.003569): 1.136 ± 0.015 mPa·s | viscosity (298.15 K, x1 = 0.001117, x3 = 0.001811): 1.021 ± 0.015 mPa·s | viscosity (298.15 K, x1 = 0.001181, x3 = 0.005424): 1.28 ± 0.016 mPa·s | viscosity (298.15 K, x1 = 0.001198, x3 = 0.007121): 1.427 ± 0.017 mPa·s | viscosity (298.15 K, x1 = 0.00132, x3 = 0.001811): 1.023 ± 0.015 mPa·s | viscosity (298.15 K, x1 = 0.001321, x3 = 0.003568): 1.143 ± 0.015 mPa·s | viscosity (298.15 K, x1 = 0.00137, x3 = 0.005423): 1.286 ± 0.016 mPa·s | viscosity (298.15 K, x1 = 0.001406, x3 = 0.00712): 1.433 ± 0.017 mPa·s | viscosity (298.15 K, x1 = 0.00149, x3 = 0.00181): 1.03 ± 0.015 mPa·s | viscosity (298.15 K, x1 = 0.001525, x3 = 0.003568): 1.149 ± 0.015 mPa·s | viscosity (298.15 K, x1 = 0.001559, x3 = 0.005422): 1.292 ± 0.016 mPa·s | viscosity (298.15 K, x1 = 0.001622, x3 = 0.007118): 1.441 ± 0.017 mPa·s | viscosity (298.15 K, x1 = 0.001679, x3 = 0.00181): 1.037 ± 0.015 mPa·s | viscosity (298.15 K, x1 = 0.001728, x3 = 0.003567): 1.158 ± 0.015 mPa·s | viscosity (298.15 K, x1 = 0.001768, x3 = 0.005421): 1.3 ± 0.016 mPa·s | viscosity (298.15 K, x1 = 0.001812, x3 = 0.007117): 1.449 ± 0.017 mPa·s
